Laboratory results published in publication PMC11239830, “Synthetic macrolides overcoming MLSBK-resistant pathogens” (Cell Discovery, 2024).
Values after ≈ are worked out from the molar mass of the structure shown. Like-named read-outs stand apart in the source and are kept apart here.

How the values were obtained:
Assay in all cases: MIC, broth microdilution
H. influenzae = type: cell-based, Haemophilus influenzae
Experimental: (§1) MICs were determined by the microdilution method according to the Clinical and Laboratory Standards Institute guidelines. […] Finally, the 96-well plates were incubated at 37 °C for 16–20 h to observe and record the results. […] The assay for MICs was replicated at least three times.

S. pyogenes = type: cell-based, Streptococcus pyogenes; conditions: S. pyogenes 12-206, c-ermTR
Experimental: as §1

S. aureus = type: cell-based, Staphylococcus aureus
Experimental: as §1

S. pneumoniae = type: cell-based, Streptococcus pneumoniae
Experimental: as §1

[1] = Haemophilus influenzae, ATCC49247, H. influenzae ATCC49247, Azi-S, read-out: MIC
[2] = Streptococcus pyogenes, read-out: MIC
[3] = Staphylococcus aureus, S. aureus 15B196, c-ermB, read-out: MIC
[4] = Staphylococcus aureus, S. aureus PU32, i-ermA, read-out: MIC
[5] = Streptococcus pneumoniae, ATCC49619, S. pneumoniae ATCC49619, Ery-S, read-out: MIC
[6] = Streptococcus pneumoniae, S. pneumoniae 07P390, c-ermB, read-out: MIC
[7] = Streptococcus pneumoniae, S. pneumoniae PU09, mef, read-out: MIC

MIC (H. influenzae; H. influenzae ATCC49247, Azi-S) [µg/mL]	MIC (S. pyogenes) [µg/mL]	MIC (S. aureus; S. aureus 15B196, c-ermB) [µg/mL]	MIC (S. aureus; S. aureus PU32, i-ermA) [µg/mL]	MIC (S. pneumoniae; S. pneumoniae 07P390, c-ermB) [µg/mL]	MIC (S. pneumoniae; S. pneumoniae ATCC49619, Ery-S) [µg/mL]	MIC (S. pneumoniae; S. pneumoniae PU09, mef) [µg/mL]	MIC (H. influenzae; [1]) [µg/mL]	MIC (S. pyogenes; [2]) [µg/mL]	MIC (S. aureus; [3]) [µg/mL]	MIC (S. aureus; [4]) [µg/mL]	MIC (S. pneumoniae; [5]) [µg/mL]	MIC (S. pneumoniae; [6]) [µg/mL]	MIC (S. pneumoniae; [7]) [µg/mL]	Compound	MIC (S. aureus; Staphylococcus aureus, S. aureus 15B196, c-ermB) [µg/mL]	MIC (S. aureus; Staphylococcus aureus, S. aureus PU32, i-ermA) [µg/mL]	MIC (S. pneumoniae; Streptococcus pneumoniae, S. pneumoniae 07P390, c-ermB) [µg/mL]
32 (≈ 32.1 µM)	512 (≈ 513 µM)	512 (≈ 513 µM)	32 (≈ 32.1 µM)	512 (≈ 513 µM)	1 (≈ 1 µM)	2 (≈ 2.01 µM)								CC[C@H]1OC(=O)[C@H](C)[C@@H](OC(=O)NCCCOCCC#Cc2ccc3c(c2)c(=O)c(C(=O)O)cn3C2CC2)[C@H](C)[C@@H](O[C@@H]2O[C@H](C)C[C@H](N(C)C)[C@H]2O)[C@](C)(O)C[C@@H](C)CN(C)[C@H](C)[C@H]2OC(=O)O[C@@]21C [117a]			
> 256	64 (≈ 65 µM)	> 256	128 (≈ 130 µM)	64 (≈ 65 µM)	0.25 (≈ 0.254 µM)	1 (≈ 1.02 µM)								CC[C@H]1OC(=O)[C@H](C)[C@@H](OC(=O)NCCCCCc2ccc3c(c2)c(=O)c(C(N)=O)cn3C2CC2)[C@H](C)[C@@H](O[C@@H]2O[C@H](C)C[C@H](N(C)C)[C@H]2O)[C@](C)(OC)C[C@@H](C)C(=NOC)[C@H](C)[C@H]2OC(=O)O[C@@]21C [59b]			
> 256	32 (≈ 32.1 µM)	> 256	128 (≈ 128 µM)	32 (≈ 32.1 µM)	0.25 (≈ 0.25 µM)	1 (≈ 1 µM)								CC[C@H]1OC(=O)[C@H](C)[C@@H](OC(=O)NCCCCCCc2ccc3c(c2)c(=O)c(C(N)=O)cn3C2CC2)[C@H](C)[C@@H](O[C@@H]2O[C@H](C)C[C@H](N(C)C)[C@H]2O)[C@](C)(OC)C[C@@H](C)C(=NOC)[C@H](C)[C@H]2OC(=O)O[C@@]21C [60b]			
							4 (≈ 4.18 µM)	2 (≈ 2.09 µM)	16 (≈ 16.7 µM)	2 (≈ 2.09 µM)	0.06 (≈ 0.0627 µM)	2 (≈ 2.09 µM)	0.12 (≈ 0.125 µM)	CC[C@H]1OC(=O)[C@H](C)[C@@H](OC(=O)NCCCCCCC#Cc2ccc3c(=O)c(C(=O)O)cn(C)c3c2)[C@H](C)[C@@H](O[C@@H]2O[C@H](C)C[C@H](N(C)C)[C@H]2O)[C@](C)(OC)C[C@@H](C)NC(=O)[C@H](C)[C@@H](O)[C@]1(C)O [126g]			
8 (≈ 8.14 µM)	8 (≈ 8.14 µM)	512 (≈ 521 µM)	32 (≈ 32.5 µM)	4 (≈ 4.07 µM)	0.12 (≈ 0.122 µM)	1 (≈ 1.02 µM)								CC[C@H]1OC(=O)[C@H](C)[C@@H](OC(=O)NCCOCCC#Cc2ccc3c(=O)c(C(=O)O)cn(C4CC4)c3c2)[C@H](C)[C@@H](O[C@@H]2O[C@H](C)C[C@H](N(C)C)[C@H]2O)[C@](C)(O)C[C@@H](C)CN(C)[C@H](C)[C@H]2OC(=O)O[C@@]21C [116c]			
32 (≈ 31.6 µM)	2 (≈ 1.98 µM)	128 (≈ 127 µM)	4 (≈ 3.96 µM)	0.25 (≈ 0.247 µM)	≤ 0.008	0.06 (≈ 0.0593 µM)								CC[C@H]1OC(=O)[C@H](C)[C@@H](OC(=O)NCCOCCC#Cc2ccc3c(=O)c(C(=O)O)cn(C4CC4)c3c2)[C@H](C)[C@@H](O[C@@H]2O[C@H](C)C[C@H](N(C)C)[C@H]2O)[C@](C)(OC)C[C@@H](C)C(=NOC)[C@H](C)[C@H]2OC(=O)O[C@@]21C [70c]			
							> 256	32 (≈ 31.6 µM)	256 (≈ 253 µM)	8 (≈ 7.9 µM)	0.12 (≈ 0.118 µM)	64 (≈ 63.2 µM)	0.5 (≈ 0.493 µM)	CCC1OC(=O)C(C)C(OC(=O)NCCCCCCCc2ccc3c(c2)c(=O)c(C(=O)O)cn3C2CC2)C(C)C(OC2OC(C)CC(N(C)C)C2O)C(C)(OC)CC(C)C(=NOC)C(C)C2OC(=O)OC12C (stereo not drawn) [61a]			
16 (≈ 15.8 µM)	2 (≈ 1.98 µM)	256 (≈ 253 µM)	8 (≈ 7.92 µM)	0.5 (≈ 0.495 µM)	0.016 (≈ 0.0158 µM)	0.12 (≈ 0.119 µM)								CC[C@H]1OC(=O)[C@H](C)[C@@H](OC(=O)NCCNCCC#Cc2ccc3c(=O)c(C(=O)O)cn(C4CC4)c3c2)[C@H](C)[C@@H](O[C@@H]2O[C@H](C)C[C@H](N(C)C)[C@H]2O)[C@](C)(OC)C[C@@H](C)C(=NOC)[C@H](C)[C@H]2OC(=O)O[C@@]21C [74c]			
> 256	16 (≈ 15.6 µM)	> 256	128 (≈ 125 µM)	32 (≈ 31.2 µM)	0.5 (≈ 0.487 µM)	4 (≈ 3.9 µM)								CC[C@H]1OC(=O)[C@H](C)[C@@H](OC(=O)NCCCCCCCCc2ccc3c(c2)c(=O)c(C(N)=O)cn3C2CC2)[C@H](C)[C@@H](O[C@@H]2O[C@H](C)C[C@H](N(C)C)[C@H]2O)[C@](C)(OC)C[C@@H](C)C(=NOC)[C@H](C)[C@H]2OC(=O)O[C@@]21C [62b]			
8 (≈ 8.15 µM)	2 (≈ 2.04 µM)	128 (≈ 130 µM)	4 (≈ 4.08 µM)	1 (≈ 1.02 µM)	0.016 (≈ 0.0163 µM)	0.06 (≈ 0.0611 µM)								CC[C@H]1OC(=O)[C@H](C)[C@@H](OC(=O)NCCCCCC#Cc2ccc3c(=O)c(C(=O)O)cn(C4CC4)c3c2)[C@H](C)[C@@H](O[C@@H]2O[C@H](C)C[C@H](N(C)C)[C@H]2O)[C@](C)(O)C[C@@H](C)CN(C)[C@H](C)[C@H]2OC(=O)O[C@@]21C [110c]			
64 (≈ 65.1 µM)	512 (≈ 521 µM)	512 (≈ 521 µM)	128 (≈ 130 µM)	512 (≈ 521 µM)	4 (≈ 4.07 µM)	8 (≈ 8.14 µM)								CC[C@H]1OC(=O)[C@H](C)[C@@H](OC(=O)NCCOCCC#Cc2ccc3c(c2)c(=O)c(C(=O)O)cn3C2CC2)[C@H](C)[C@@H](O[C@@H]2O[C@H](C)C[C@H](N(C)C)[C@H]2O)[C@](C)(O)C[C@@H](C)CN(C)[C@H](C)[C@H]2OC(=O)O[C@@]21C [116a]			
							16 (≈ 16.3 µM)	2 (≈ 2.04 µM)	64 (≈ 65.3 µM)	4 (≈ 4.08 µM)	0.016 (≈ 0.0163 µM)	0.12 (≈ 0.122 µM)	0.06 (≈ 0.0612 µM)	CC[C@H]1OC(=O)[C@H](C)[C@@H](OC(=O)NCCCCCC#Cc2ccc3c(=O)c(C(=O)O)cn(C4CC4)c3c2)[C@H](C)[C@@H](O[C@@H]2O[C@H](C)C[C@H](N(C)C)[C@H]2O)[C@](C)(OC)C[C@@H](C)C(=O)[C@H](C)[C@H]2OC(=O)O[C@@]21C [79c]			
8 (≈ 8.39 µM)	64 (≈ 67.1 µM)	512 (≈ 537 µM)	64 (≈ 67.1 µM)	128 (≈ 134 µM)	0.25 (≈ 0.262 µM)	1 (≈ 1.05 µM)								CC[C@H]1OC(=O)[C@H](C)[C@@H](OC(=O)NCCCC#Cc2ccc3c(=O)c(C(=O)O)cn(C4CC4)c3c2)[C@H](C)[C@@H](O[C@@H]2O[C@H](C)C[C@H](N(C)C)[C@H]2O)[C@](C)(O)C[C@@H](C)CN(C)[C@H](C)[C@H]2OC(=O)O[C@@]21C [108c]			
32 (≈ 31.2 µM)	128 (≈ 125 µM)	128 (≈ 125 µM)	16 (≈ 15.6 µM)	2 (≈ 1.95 µM)	0.016 (≈ 0.0156 µM)	0.5 (≈ 0.488 µM)								CC[C@H]1OC(=O)[C@H](C)[C@@H](OC(=O)NCCCCCC#Cc2ccc3c(=O)c(C(=O)NO)cn(C4CC4)c3c2)[C@H](C)[C@@H](O[C@@H]2O[C@H](C)C[C@H](N(C)C)[C@H]2O)[C@](C)(OC)C[C@@H](C)C(=NOC)[C@H](C)[C@H]2OC(=O)O[C@@]21C [57e]			
32 (≈ 31.3 µM)	2 (≈ 1.95 µM)	64 (≈ 62.5 µM)	8 (≈ 7.82 µM)	1 (≈ 0.977 µM)	0.25 (≈ 0.244 µM)	0.25 (≈ 0.244 µM)								CC[C@H]1OC(=O)[C@H](C)[C@@H](OC(=O)NCCCCCCC#Cc2ccc3c(=O)c(C(=O)O)cn(C4CC4)c3c2)[C@H](C)[C@@H](O[C@@H]2O[C@H](C)C[C@H](N(C)C)[C@H]2O)[C@](C)(OC)C[C@@H](C)C(=NOC)[C@H](C)[C@H]2OC(=O)O[C@@]21C [58c]			
							> 256	32 (≈ 31.7 µM)	128 (≈ 127 µM)	16 (≈ 15.9 µM)	0.25 (≈ 0.248 µM)	64 (≈ 63.4 µM)	1 (≈ 0.991 µM)	CCC1OC(=O)C(C)C(OC(=O)NCCCCCC#Cc2ccc3c(c2)c(=O)c(C(=O)O)cn3C2CC2)C(C)C(OC2OC(C)CC(N(C)C)C2O)C(C)(OC)CC(C)C(=NOC)C(C)C2OC(=O)OC12C (stereo not drawn) [57a]			
							16 (≈ 15.6 µM)	1 (≈ 0.975 µM)	32 (≈ 31.2 µM)	2 (≈ 1.95 µM)	≤ 0.008	0.12 (≈ 0.117 µM)	≤ 0.008	CCC1OC(=O)C(C)C(OC(=O)NCCCOCCC#Cc2ccc3c(=O)c(C(=O)O)cn(C4CC4)c3c2)C(C)C(OC2OC(C)CC(N(C)C)C2O)C(C)(OC)CC(C)C(=NOC)C(C)C2OC(=O)OC12C (stereo not drawn) [72c]			

Compound	MIC (H. influenzae; H. influenzae ATCC49247, Azi-S) [µg/mL]	MIC (S. pyogenes) [µg/mL]	MIC (S. aureus; S. aureus 15B196, c-ermB) [µg/mL]	MIC (S. aureus; S. aureus PU32, i-ermA) [µg/mL]	MIC (S. pneumoniae; S. pneumoniae 07P390, c-ermB) [µg/mL]	MIC (S. pneumoniae; S. pneumoniae ATCC49619, Ery-S) [µg/mL]	MIC (S. pneumoniae; S. pneumoniae PU09, mef) [µg/mL]	MIC (H. influenzae; [1]) [µg/mL]	MIC (S. pyogenes; [2]) [µg/mL]	MIC (S. aureus; [3]) [µg/mL]	MIC (S. aureus; [4]) [µg/mL]	MIC (S. pneumoniae; [5]) [µg/mL]	MIC (S. pneumoniae; [6]) [µg/mL]	MIC (S. pneumoniae; [7]) [µg/mL]	MIC (S. aureus; Staphylococcus aureus, S. aureus 15B196, c-ermB) [µg/mL]	MIC (S. aureus; Staphylococcus aureus, S. aureus PU32, i-ermA) [µg/mL]	MIC (S. pneumoniae; Streptococcus pneumoniae, S. pneumoniae 07P390, c-ermB) [µg/mL]
CC[C@H]1OC(=O)[C@H](C)[C@@H](O[C@H]2C[C@@](C)(OC)[C@@H](O)[C@H](C)O2)[C@H](C)[C@@H](O[C@@H]2O[C@H](C)C[C@H](N(C)C)[C@H]2O)[C@](C)(O)C[C@@H](C)CN(C)[C@H](C)[C@@H](O)[C@]1(C)O [azithromycin, reference compound]								2 (≈ 2.67 µM)	> 256			0.25 (≈ 0.334 µM)		8 (≈ 10.7 µM)	> 256	> 256	> 256
